In PMC6273229, “Imidazopyranotacrines as Non-Hepatotoxic, Selective Acetylcholinesterase Inhibitors, and Antioxidant Agents for Alzheimer′s Disease Therapy” (Molecules, 2016):
Several values for one entry are separate records, joined by “and”; a condition that tells them apart may be missing. Equal entries are not always repeated. Entries after “also recorded” stand apart in the source; their conditions may differ. Where two headings read alike, the source gives them in different places.

Legend:
[1] = molecular target: AChE from Electrophorus electricus (EeAChE) (Electrophorus electricus, UniProt O42275); assay: biochemical
AChE from Electrophorus electricus (EeAChE), sequence (O42275 24-633): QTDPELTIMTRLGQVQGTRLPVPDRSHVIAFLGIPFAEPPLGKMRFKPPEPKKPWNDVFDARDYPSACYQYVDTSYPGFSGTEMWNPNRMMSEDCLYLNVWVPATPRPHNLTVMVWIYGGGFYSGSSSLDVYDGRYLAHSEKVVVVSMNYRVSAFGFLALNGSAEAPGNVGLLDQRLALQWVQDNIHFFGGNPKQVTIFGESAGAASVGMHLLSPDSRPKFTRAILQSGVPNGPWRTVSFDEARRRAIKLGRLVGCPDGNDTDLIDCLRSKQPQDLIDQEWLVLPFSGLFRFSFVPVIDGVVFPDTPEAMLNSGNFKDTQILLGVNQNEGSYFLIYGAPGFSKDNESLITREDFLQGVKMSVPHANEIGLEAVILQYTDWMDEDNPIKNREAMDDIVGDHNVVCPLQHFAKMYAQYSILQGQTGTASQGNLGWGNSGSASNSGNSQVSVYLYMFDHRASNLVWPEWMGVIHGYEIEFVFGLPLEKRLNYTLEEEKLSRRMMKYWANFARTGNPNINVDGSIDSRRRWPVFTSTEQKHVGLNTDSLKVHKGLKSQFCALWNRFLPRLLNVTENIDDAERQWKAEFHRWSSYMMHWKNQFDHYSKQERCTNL
Method: The inhibitory activity on AChE from Electrophorus electricus (type VI-S, Sigma, Milan, Italy), was evaluated spectrophotometrically by the method of Ellman et al.. AChE stock solution was prepared by dissolving EeAChE lyophilized powder (Sigma) in 0.1 M phosphate buffer (pH = 8.0) containing 0.1% Triton X-100. Stock solutions of the tested compounds (1 mM) were prepared in MeOH/H2O 50/50 (v/v) and diluted in MeOH/H2O 50/50 (v/v). […] Assay solutions with and without inhibitor were preincubated at 37 °C for 20 min followed by the addition of substrate. Blank solutions containing all components except EeAChE were prepared in parallel to account for the non-enzymatic hydrolysis of the substrate. Initial rate assays were performed at 37 °C with a Jasco V-530 double beam spectrophotometer. […] The velocity in the presence and absence of inhibitor were compared and % inhibition was calculated. The results were plotted by placing the percentage of inhibition in function of the decimal log of the final inhibitor concentration. Linear regression and IC50 values were calculated using Microcal Origin 3.5 software (Microcal Software, […]).

[2] = molecular target: T1, BuChE from horse serum (eqBuChE) (Equus caballus, UniProt P81908); assay: biochemical; details: mean ± SEM
T1 construct: BuChE from horse serum (lyophilized powder, Sigma-Aldrich); purchased Sigma-Aldrich; host or cells: horse serum
T1 sequence (P81908 whole entry): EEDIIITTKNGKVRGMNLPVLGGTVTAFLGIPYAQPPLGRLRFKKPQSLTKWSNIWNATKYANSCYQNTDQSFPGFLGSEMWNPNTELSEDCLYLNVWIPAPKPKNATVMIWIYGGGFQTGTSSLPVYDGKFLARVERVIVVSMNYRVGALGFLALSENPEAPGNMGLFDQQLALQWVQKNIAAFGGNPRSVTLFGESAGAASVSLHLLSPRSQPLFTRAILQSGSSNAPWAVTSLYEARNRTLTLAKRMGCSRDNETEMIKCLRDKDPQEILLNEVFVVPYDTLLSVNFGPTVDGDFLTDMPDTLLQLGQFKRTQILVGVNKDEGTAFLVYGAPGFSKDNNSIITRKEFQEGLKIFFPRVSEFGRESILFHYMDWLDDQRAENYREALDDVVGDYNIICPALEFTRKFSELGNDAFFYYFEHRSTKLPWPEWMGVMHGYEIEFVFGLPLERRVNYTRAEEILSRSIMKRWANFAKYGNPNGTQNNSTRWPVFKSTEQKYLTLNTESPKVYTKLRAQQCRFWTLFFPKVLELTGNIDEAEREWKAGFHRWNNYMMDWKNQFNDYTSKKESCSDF
Method: The % inhibitory activity on BuChE from horse serum (lyophilized powder, Sigma-Aldrich), was evaluated spectrophotometrically by the method of Ellman et al.. BuChE stock solutions were first dissolved in 0.1 M phosphate buffer (pH 8.0) and then aliquoted in small vials. Compounds were dissolved in DMSO at 10 mM. The reaction was carried out in a final volume of 3 mL of a 0.1 M phosphate-buffered solution at pH 8.0, containing 5,5′-dithiobis-2-nitrobenzoic acid (DTNB, 2625 µL, 0.35 mM, final concentration), eqBuChE (60 µL, 0.05 U/mL final concentration), tested compound (3 µL, 10 µM, final concentration) and 1% w/v Bovine Serum Albumin phosphate-buffered (pH 8.0) solution (BSA, 40 µL). The inhibition with respect to control without compound was determined by pre-incubating this mixture at rt with each compound for 10 min. After this period, butyrylthiocholine iodide (150 µL, 0.5 mM final concentration) was added and incubated for 15 min at rt.

[3] = Oxygen radical absorbance capacity by fluorescence (ORAC-FL); details: Trolox equivalents, mean ± SD
Method: The antioxidant power of the imidazopyranotacrines 1–13 was determined by the oxygen radical absorbance capacity by fluorescence (ORAC-FL) method using fluorescein as fluorescent probe and Trolox (6-hydroxy-2,5,7,8-tetramethylchroman-2-carboxylic acid) as a reference compound. Results are expressed as Trolox equivalents (μmol Trolox per μmol test compound).
The radical scavenging activity of imidazopyranotacrines 1–13 was determined by the ORAC-FL method using a Varioskan Flash plate reader with built-in injectors (Thermo Scientific). Trolox, 2,2′-azobis(amidinopropane) dihydrochloride (AAPH) and fluorescein (FL) were purchased from Sigma-Aldrich. The reaction was performed at 37 °C in 75 mM phosphate buffer (pH = 7.4), and the final volume reaction mixture was 200 µL. The final concentrations were 1–8 µM for Trolox and 0.1–1 µM for the tested compounds. Briefly, in a black 96-well microplate (Nunc), antioxidant (20 µL) and fluorescein (120 µL) were incubated for 15 min at 37 °C. Then, 2,2′-azobis(amidinopropane) dihydrochloride (60 µL) was added using the built-in injector. […] All assays were made in triplicate and at least three different assays were performed for each sample.
The net AUC corresponding to a sample was calculated as follows: Net AUC = AUCantioxidant − AUCblank(2)
Regression equations were calculated by plotting the net AUC against the antioxidant concentration. The ORAC value was obtained by dividing the slope of the latter curve by the slope of the Trolox curve obtained in the same assay. ORAC values was expressed as µmol of Trolox equivalent/µmol of imidazopyranotacrines. Data are expressed as mean ± SD.

HepG2 cells = format: cell-based; details: for Cell viability (MTT reduction, % control): 24 h, mean ± S.E.M.; for hepatotoxicity on HepG2 cells (in words): cell viability assay, 1–1000 µM
Method: The human hepatoma HepG2 line cells were purchased from American Type Culture Collection. The cells were cultured in Eagle’s Minimum Essential Medium (Ozyme, Montigny-le-Bretonneux, France) supplemented with 10% fetal bovine serum, 1X non-essential amino acids, 100 units/mL penicillin and […] streptomycin (Dutscher, Brumath, France). […] Prior to the experiment, cells were seeded in 96-well culture plates at a density of 0.1 × 10^6 cells per well. After 24 h of incubation, the culture medium was refreshed and 100 µL of the test compounds or DMSO (0.1%) were added. Compounds were tested at 7 concentrations (1–1000 µM) in triplicate.
Cell viability, measured as the mitochondrial activity of living cells, was determined by quantitative colorimetric assay with 3-[4,5 dimethylthiazol-2-yl]-2,5-diphenyl-tetrazolium bromide (MTT). Briefly, after 24 h of treatment, cells were incubated with 50 µL MTT (0.5 mg/mL, Sigma Aldrich) at 37 °C for 2 h. Plates were centrifuged, MTT was removed and 100 µL DMSO was distributed per well. The absorbance was read at 570 nm by microplate spectrophotometry. Cell viability was expressed as percentage over controls (DMSO, 0.1%).

[4] = ORAC-FL, Trolox equivalents, cited from earlier work
EeAChE = molecular target: T2, EeAChE (Electrophorus electricus, UniProt O42275); assay: Kinetic analysis of the inhibition of EeAChE (Lineweaver-Burk, Dixon, Cornish-Bowden plots); format: biochemical
T2 construct: purchased Sigma type VI-S
T2 sequence (O42275 24-633): as the sequence (O42275 24-633) above
Method: . […] The non-competitive mechanism of action was confirmed by building the Cornish-Bowden plot (Figure 3B). Replots of the substrate/velocity versus the concentration of compound 8 provided an estimate of the non-competitive inhibition constant, which resulted equal to 4.10 μM. The non-competitive mechanism of action was confirmed by computational chemistry by performing the docking analysis of both enantiomers of compound 8 on AChE (see Supplementary Materials).
[…]. Four concentrations of inhibitor were selected for this study: 0.850, 2.124, 3.399, 6.798 μM. The plots were assessed by a weighted least-squares analysis that assumed the variance of the velocity (v) to be a constant percentage of v for the entire data set. Data analysis was performed with GraphPad Prism 4.03 software (GraphPad Software Inc., San Diego, CA, USA). The determination of the non-competitive inhibition constant Ki value was carried out using Dixon plot, i.e., plotting the apparent 1/v vs. inhibitor concentration [I] [34] and confirmed by Cornish-Bowden plot ([substrate]/v vs. [I]).

## CCOC(=O)C1=C(C)Oc2nc3c(c(N)c2C1c1nccn1C)CCCC3 (centres unmarked) [Compound 2, Ethyl 5-amino-2-methyl-4-(1-methyl-1H-imidazol-2-yl)-6,7,8,9-tetrahydro-4H-pyrano[2,3-b]quinoline-3-carboxylate]
[1]
  IC50: 11.5 ± 0.4 µM
[2]
  inhibition at 10 µM: 34 ± 0.5%
[3]
  ORAC: 1.79 ± 0.17 µmol Trolox/µmol compound
HepG2 cells; HepG2, 1 µM
  Cell viability (MTT reduction, % control): 102.7 ± 3.7 % control
HepG2 cells; HepG2, 3 µM
  Cell viability (MTT reduction, % control): 103.2 ± 4.4 % control
HepG2 cells; HepG2, 10 µM
  Cell viability (MTT reduction, % control): 101.3 ± 3.9 % control
HepG2 cells; HepG2, 30 µM
  Cell viability (MTT reduction, % control): 99.2 ± 2.6 % control
HepG2 cells; HepG2, 100 µM
  Cell viability (MTT reduction, % control): 93.0 ± 4.7 % control
HepG2 cells; HepG2, 300 µM
  Cell viability (MTT reduction, % control): 87.5 ± 3.2 % control
HepG2 cells; HepG2, 1000 µM
  Cell viability (MTT reduction, % control): 58.8 ± 2.1 % control
HepG2 cells
  hepatotoxicity on HepG2 cells (in words): safe even at 300 µM

## 7-(1-Methyl-1H-imidazol-2-yl)-9,10,11,12-tetrahydro-7H-benzo[7,8]chromeno[2,3-b]quinolin-8-amine [Compound 10]
[1]; read-out: EeAChE IC50 Values, mean ± SEM
  IC50: 10.7 ± 0.2 µM
[2]
  eqBuChE % Inhibition at 10 μM: 25.0 ± 0.2%
[3]
  ORAC: 2.75 ± 0.09 µmol Trolox/µmol compound
HepG2 cells; HepG2, 1 µM
  Cell viability (MTT reduction, % control): 101.8 ± 4.2 % control
HepG2 cells; HepG2, 3 µM
  Cell viability (MTT reduction, % control): 100.7 ± 2.6 % control
HepG2 cells; HepG2, 10 µM
  Cell viability (MTT reduction, % control): 100.5 ± 1.9 % control
HepG2 cells; HepG2, 30 µM
  Cell viability (MTT reduction, % control): 71.4 ± 7.4 % control
HepG2 cells; HepG2, 100 µM
  Cell viability (MTT reduction, % control): 63.5 ± 6.2 % control
HepG2 cells; HepG2, 300 µM
  Cell viability (MTT reduction, % control): 64.8 ± 5.7 % control
HepG2 cells; HepG2, 1000 µM
  Cell viability (MTT reduction, % control): 66.8 ± 4.1 % control
HepG2 cells
  hepatotoxicity on HepG2 cells (in words): more toxic than tacrine

## Nc1c2c(nc3ccccc13)CCCC2 [Tacrine]
HepG2 cells; HepG2, 1 µM
  Cell viability (MTT reduction, % control): 95.8 ± 2.2 % control
HepG2 cells; HepG2, 3 µM
  Cell viability (MTT reduction, % control): 100.4 ± 2.2 % control
HepG2 cells; HepG2, 10 µM
  Cell viability (MTT reduction, % control): 96.9 ± 3.9 % control
HepG2 cells; HepG2, 30 µM
  Cell viability (MTT reduction, % control): 97.7 ± 3.9 % control
HepG2 cells; HepG2, 100 µM
  Cell viability (MTT reduction, % control): 98.6 ± 3.8 % control
HepG2 cells; HepG2, 300 µM
  Cell viability (MTT reduction, % control): 39.2 ± 4.7 % control
HepG2 cells; HepG2, 1000 µM
  Cell viability (MTT reduction, % control): 20.0 ± 2.1 % control
HepG2 cells
  hepatotoxicity on HepG2 cells (in words): safe up to 100 µM
[4]
  ORAC: 0.20 ± 0.04 [28] µmol Trolox/µmol compound
[4]; listed as tacrine
  ORAC: 0.20 ± 0.04 µmol Trolox/µmol compound

## CC(=O)C1=C(C)Oc2nc3c(c(N)c2C1c1nccn1C)CCCC3 (centres unmarked) [Compound 4, 1-(5-Amino-2-methyl-4-(1-methyl-1H-imidazol-2-yl)-6,7,8,9-tetrahydro-4H-pyrano[2,3-b]quinolin-3-yl)ethan-1-one]
[1]
  IC50: 38.7 ± 1.7 µM
[2]
  inhibition at 10 µM: 24.9 ± 0.9%
[3]
  ORAC: 2.31 µmol Trolox/µmol compound and 2.31 ± 0.29 µmol Trolox/µmol compound
HepG2 cells; HepG2, 1 µM
  Cell viability (MTT reduction, % control): 107.7 ± 5.1 % control
HepG2 cells; HepG2, 3 µM
  Cell viability (MTT reduction, % control): 105.3 ± 2.9 % control
HepG2 cells; HepG2, 10 µM
  Cell viability (MTT reduction, % control): 102.1 ± 2.9 % control
HepG2 cells; HepG2, 30 µM
  Cell viability (MTT reduction, % control): 98.0 ± 3.1 % control
HepG2 cells; HepG2, 100 µM
  Cell viability (MTT reduction, % control): 104.6 ± 4.5 % control
HepG2 cells; HepG2, 300 µM
  Cell viability (MTT reduction, % control): 97.1 ± 3.0 % control
HepG2 cells; HepG2, 1000 µM
  Cell viability (MTT reduction, % control): 96.8 ± 1.5 % control
HepG2 cells
  hepatotoxicity on HepG2 cells (in words): non-hepatotoxic; also recorded: safe even at 300 µM; also recorded: non-toxic even at the highest tested concentration; also recorded: lack of hepatotoxicity even at very high concentration

## Cn1ccnc1C1c2c(nc3c(c2N)CCCC3)Oc2ccc3ccccc3c21 (centres unmarked) [Compound 8, 14-(1-Methyl-1H-imidazol-2-yl)-9,11,12,14-tetrahydro-10H-benzo[5,6]chromeno[2,3-b]quinolin-13-amine]
[1]
  IC50: 6.73 ± 0.52 µM
[2]
  inhibition at 10 µM: 51.6 ± 0.6%
EeAChE; Km unaltered, Vmax decreased
  mechanism of inhibition of EeAChE: non-competitive
EeAChE; substrate acetylthiocholine, estimate from Cornish-Bowden plot, read-out: non-competitive inhibition constant (Ki)
  Ki: 4.1 µM
[3]
  ORAC: 1.88 ± 0.01 µmol Trolox/µmol compound
HepG2 cells; HepG2, 1 µM
  Cell viability (MTT reduction, % control): 108.1 ± 5.4 % control
HepG2 cells; HepG2, 3 µM
  Cell viability (MTT reduction, % control): 101.3 ± 10.8 % control
HepG2 cells; HepG2, 10 µM
  Cell viability (MTT reduction, % control): 79.0 ± 9.1 % control
HepG2 cells; HepG2, 30 µM
  Cell viability (MTT reduction, % control): 57.6 ± 4.2 % control
HepG2 cells; HepG2, 100 µM
  Cell viability (MTT reduction, % control): 52.7 ± 3.3 % control
HepG2 cells; HepG2, 300 µM
  Cell viability (MTT reduction, % control): 51.2 ± 2.8 % control
HepG2 cells; HepG2, 1000 µM
  Cell viability (MTT reduction, % control): 66.2 ± 6.8 % control
HepG2 cells
  hepatotoxicity on HepG2 cells (in words): more toxic than tacrine
